Patent US8022103B2, “Ester prodrugs of prostratin and related phorbol compounds” (Salvia Sciences, Inc., priority 2005, dated 2011)
Converted amounts (≈) assume the structure as drawn.

Test system: HIV-1 isolates Ba-L and IIIB and the SIV isolate mac251
Experiment: PBMC-based assay, summary over all three isolates
Format: cell-based
Settings: read-out: IC50 values against all three isolates
Method: Compounds SA-101A and SA-101B were tested for antiviral activity against HIV-1 in peripheral blood mononuclear cells (PBMC) acutely infected with the HIV-1 isolates. PBMCs were derived from normal HIV-1 negative donors, and cultured under conditions which promote cell survival and HIV replication. Fresh human blood was obtained commercially from Biological Specialty Corporation (Colmar, Pa.). The low passage clinical isolates HIV-1Ba-L, HIVIIIB, and SIVmac251 were from the NIAID AIDS Research and Reference Reagent Program. Immediately before use, pre-titered aliquot of the viruses were removed from storage in a freezer (−80° C.) and thawed rapidly to room temperature in a biological safety cabinet. Phytohemagglutinin (PHA-P) was obtained from Sigma (St. Louis, Mo.) and recombinant IL-2 was obtained from R&D Systems Inc. (Minneapolis, Minn.). […]
PMBC assay. […] Pooling (mixing) of mononuclear cells from more than one donor is used to minimize the variability observed between individual donors, which results from quantitative and qualitative differences in HIV infection and overall response to the PHA and IL-2 of primary lymphocyte populations. […]

Structure (SMILES): CC(=O)O[C@@]12C[C@@H](C)[C@@]3(O)[C@@H](C=C(CO)C[C@]4(O)C(=O)C(C)=C[C@@H]34)[C@@H]1C2(C)C [SA-101A, 12-deoxyphorbol 13-acetate]
- IC50: 0.05 to 0.39 µg/mL (≈ 0.128 to 0.999 µM)
